The source of these data is publication PMC11542721, “Molecular properties, including chameleonicity, as essential tools for designing the next generation of oral beyond rule of five drugs” (ADMET & DMPK, 2024).

Read-outs that look alike come from different tables or passages of the source.

Data set [1] is described as follows: BRlogD chromatographic lipophilicity (octanol/water surrogate).
For data set [2] the following is noted: preclinical models; cited from earlier work.
Data set [3] deals with enzalutamide-insensitive tumours. More on the design: method as in PMID 36508999. Particulars: cited from earlier work.
Data set [4] can be described thus: IAM chromatography (log kw^IAM and Δ log kw^IAM). In kind it is physicochemical. Particulars: for log kw^IAM: IAM column, extrapolated to 0% organic solvent; for Δ log kw^IAM: polarity descriptor. The source says:
Furthermore, RP-HPLC methods generate biomimetic environments. For example, immobilized artificial membrane (IAM) chromatography, first introduced by Charles Pidgeon and his colleagues, is used to simulate biological cell membranes. IAM columns consist of a monolayer of phosphatidylcholine covalently bound to an inert silica support . The reference descriptor is the logarithm of the capacity factor at 0% organic solvent (extrapolated value), named log kW^IAM. In the IAM system, the retention of charged molecules also depends on the electrostatic interactions with the phospholipid heads.
Without entering the method details that can be retrieved in the literature, Δ log kw^IAM represents the polarity of the analyte.

Data set [5] in a line: Ionization behaviour from variation of log k'80 PLRP-S at three pHs. It is filed as physicochemical. Particulars: for A/B: acid or base profile: log k'80 PLRP-S at acidic, neutral and basic pH. The source says: The ionization constant (usually reported as pKa) is an important parameter for evaluating ionizable molecules since it may have a decisive impact on the in vitro ADME properties. […] Since the experimental determination of pKa is not a trivial assay and a certain degree of expertise is required, Caron’s group observed that the ionization behaviour (not the pKa) of a molecule can be obtained by monitoring the variation of the log of the capacity factor in the PLRP-S system (log k'80 PLRP-S) vs. the pH [15]. […] In many cases, ionization is completely overlooked, and in some instances, it is predicted using standard calculators not designed for large, flexible molecules.
Then, we focused on experimental descriptors. We first explored the ionization behavior of the three PROTACS by monitoring the variation in log k'80 PLRP-s at three pHs.

Data set [6] is described as follows: Chamelogk chromatographic chameleonicity descriptor (PLRP-S). It is filed as physicochemical. Conditions: Exp. minus Ext. log k' 100 PLRP-S. As to the method:
Therefore, we recently implemented a chromatographic descriptor, Chamelogk, that measures chameleonicity in a unique and dynamic system. To obtain Chamelogk (Figure 5B), the first step involves the experimental determination of the capacity factor (log k' PLRP-S) at 50, 60, and 70 % of acetonitrile. Then, the linear correlation between the log k' PLRP-S and the percentage of MeCN is determined. The equation derived from the linear correlation is then applied to extrapolate the capacity factor at 100 % (called Ext. log k’ 100 PLRP-S). Then, the experimental value at 100 % MeCN is measured (named Exp. log k’ 100 PLRP-S) and the difference with the extrapolated value is calculated. Thus, Chamelogk is defined as the capacity factor difference (Δ log k') between the experimental log k' measured at 100 % MeCN (Exp. log k' 100) and the extrapolated value (Ext. log k’ 100), as shown by Equation 2 and Figure 5B.

For data set [7] the following is noted: cited from earlier work.
The next data set concerns advanced breast cancer. Set-up: method as in doi:10.1016/j.annonc.2023.09.567. Particulars: phase I and II, cited from earlier work.
The next data set has as its system ER (estrogen receptor). Set-up: method as in doi:10.1016/j.annonc.2023.09.567. Particulars: tumor cell lines, in vitro; cited from earlier work.
The conditions of data set [8]: mouse; cited from earlier work.
Data set [9] relates to Bcl-xL (B-cell lymphoma extra-large). More on the design: method as in PMID 32677976. Conditions: cancer cells, preclinical studies; cited from earlier work.
Where [10] appears, read: RP-HPLC, surrogate of octanol/water.

One may read the chromatographic logD as a lipophilicity value derived from retention on a column. Low values mean a more hydrophilic compound, high ones a more lipophilic compound.

In [1], `N#Cc1ccc(O[C@H]2CC[C@H](NC(=O)c3ccc(N4CCC(CN5CCN(c6cc7c(cc6F)C(=O)N(C6CCC(=O)NC6=O)C7=O)CC5)CC4)nn3)CC2)cc1Cl` (stereo partly drawn) [ARV-110, bavdegalutamide] registered a chromatographic logD of 4.25. The “Oral bioavailability F” value in data set [2] is more than 30%. The “Tumour growth in vivo” value in [3] is “significantly inhibited the growth”. Besides, in data set [4], the “log kw^IAM” value is listed as 3.20 and the “Δ log kw^IAM” value is on record as 0.33. Also, in [5], the “A/B: acid or base profile” value is “basic and Base”; the “Ionization state at pH 7” value is “predominantly neutral”. For the same compound, the Chamelogk in data set [6] is recorded as 0.99. The Absorption entry in data set [7] is on record as “Oral”.
Regarding `O=C1CC[C@H](N2Cc3cc(N4CCN(CC5CCN(c6ccc([C@@H]7c8ccc(O)cc8CC[C@@H]7c7ccccc7)cc6)CC5)CC4)ccc3C2=O)C(=O)N1` [ARV-471, vepdegestrant], the Clinical activity entry in the data set with advanced breast cancer (advanced breast cancer patients) is recorded as “showed clinical activity”. For the same compound, the Tolerability result with advanced breast cancer (all doses orally administered) is recorded as “well tolerated”. Moreover, in the data set with ER (estrogen receptor), the ER degradation result is “up to 97%”. The chromatographic logD in data set [1] (setting [10]) turned out to be 4.73. Moreover, the “Oral bioavailability F” value in [2] is reported as more than 30%. In data set [4], the “log kw^IAM” value is recorded as 3.39 and the “Δ log kw^IAM” value stood at 0.07. Further, in data set [5], the “A/B: acid or base profile” value is “basic and Base”; the “Ionization state at pH 7” value is “predominantly neutral”. In [7], the Absorption result was “Oral”.
In the case of `Cc1sc2c(c1C)C(c1ccc(Cl)cc1)=N[C@@H](CC(=O)Nc1ccc(OCCOCCOCCOCCNc3cccc4c3C(=O)N(C3CCC(=O)NC3=O)C4=O)cc1)c1nnc(C)n1-2` (stereo partly drawn) [ARV-825], the “A/B: acid or base profile” value in data set [5] was “nonionizable”.
As for `Cc1ncsc1-c1ccc([C@H](C)NC(=O)[C@@H]2C[C@@H](O)CN2C(=O)[C@@H](NC(=O)CCCCCC(=O)N2CCN(CC[C@H](CSc3ccccc3)Nc3ccc(S(=O)(=O)NC(=O)c4ccc(N5CCN(CC6=C(c7ccc(Cl)cc7)CCC(C)(C)C6)CC5)cc4)cc3S(=O)(=O)C(F)(F)F)CC2)C(C)(C)C)cc1` [DT2216], the chromatographic logD in [1] (setting [10]) was more than 6. The “Oral bioavailability F” value in data set [8] was less than 0.03%. The “log kw^IAM” value in data set [4] is more than 4. The “A/B: acid or base profile” value in data set [5] was “ampholyte”. The Absorption result in data set [7] is “Intravenous”. The “Degradation of Bcl-xL” value in [9] is listed as “selectively induced degradation of Bcl-xL”.
`C=C[C@@H]1C[C@]1(NC(=O)[C@@H]1C[C@@H](Oc2ncc(OC)c3ccc(Cl)cc23)CN1C(=O)[C@@H](NC(=O)OC(C)(C)C)C(C)(C)C)C(=O)NS(=O)(=O)C1CC1` [asunaprevir]: in [5], the “A/B: acid or base profile” value was “acidic”.
